Assay results as given in patent US7700353B2, “Compositions and methods for inducing apoptosis in tumor cells” (E-P Therapeutics, Inc., priority 1998, dated 2010).

B1: rtEa-3: recombinant Ea-3 peptide of rainbow trout pro-IGF-I, 62 amino acid residues (SEQ ID NO: 3) (protein)
chain: RSVRAQRHTDMPRTPKVSTAVQSVDRGTERRTAQHPDKTKPKKEVHQKNSSRGNTGGRNYRM
modifications: Oncorhynchus mykiss

Experiments:
[1] = system: 293GP and MCF-7 cells; test: Effect of RNA/protein synthesis inhibitors on Ea-4 induced morphological change; format: cell-based, human; details: 24 hours
Procedure: To study the effects of α-aminitin and cycloheximide, known inhibitors of RNA and protein synthesis, respectively, on morphological changes induced by rtEa-4-peptide, about 1-2×10^5 of ZR-75-1 and 293GP cells, re-suspended in their respective basal medium without FBS, were plated in a 6-well culture chamber. Prior to plating the cells, an acid-washed coverslip was placed in each well of the culture chamber. Each culture was treated with recombinant trout Ea-4-peptide at 0.8 µM, and with either α-aminitin at 10 µg/mL (an RNA synthesis inhibitor) or with cycloheximide at 1.0 µg/mL (a protein synthesis inhibitor). The cell cultures were incubated at 37° C. under a humidified atmosphere of 5% CO2. Coverslips were removed from the culture chamber 24 hours after initiation of the treatment and observed under an Olympic inverted microscope equipped with differential interference phase contrast objective lenses (final magnification, 200×). The viability of the inhibitor-treated cells was further determined by a dye extrusion assay.
To determine whether the morphological changes induced by the Ea-4 peptides requires synthesis of new proteins or of RNA, 293GP and MCF-7 cells were cultured under the same conditions as described above. Ea-4 peptide-induced morphological changes in 293GP and MCF-7 cells were abolished by treatment with cycloheximide or α-aminitin (FIG. 4).

[2] = system: SK-N-F1 neuroblastoma cells; test: Neurite-like process outgrowth / morphological differentiation; format: cell-based, human; details: 5 nM
Procedure: Cells under various treatment conditions were maintained at 37° C. in a 5% CO2 incubator and observed from 30 minutes to 72 hours after incubation (synthetic human Ea- and Eb-peptide were chemically synthesized at the Biotechnology Center, University of Connecticut). For treatment with synthetic hEa, hEb peptide or hlGF-I, 1×10^5 cells were plated in each well of a 12-well culture plate in DMEM/F12 (1:1) supplemented with 0.4-3.2 µM of synthetic hEa-, hEb-peptide and/or 5-10 nM of hlGF-I.
Neuroblastoma SK-N-F1 cells (10^5) were seeded into 12-well culture plates in DMEM/F12 (1:1) supplemented with 0-3.2 µM of synthetic hEb-peptide, or buffer control, and incubated at 37° C. in a 5% CO2 humidified incubator.
Cell images were taken by random sampling at various time points using a MicroMAX CCD camera (Princeton Instruments, Bozeman, Mont.). Approximately 1000 cells were analyzed from each treatment, carried out in triplicate. Cells with neurites longer than one cell body diameter (>20 µm for SK-N-F1 cells) were scored as positive neurite-bearing (Fagerstrom, et al., Cell Growth Differ., 7: 775-85, 1996; Morrione, et al., Cancer Res. 60: 2263-72, 2000). The percentage of neurite-bearing cells and the respective length of neurites were measured with reference to a stage micrometer and analyzed using the public domain NIH Image program (developed at the U.S. National Institutes of Health and available on the Internet at http://rsb.info.nih.gov/nih-image).
To further characterize the dose-response relationship and time course of hEb peptide in inducing neurite-like process outgrowth, SK-N-F1 neuroblastoma cells were treated with various amounts (0 to 3.2 µM) of hEb peptide over a course of 72 hours. Images of cells were taken by random sampling after 1 h, 6 h, 24 h, 48 h and 72 h of incubation (see FIG. 11B). The average length of neurite-like process outgrowth was measured by random sampling of more than 1000 cells at various time points. The neurite-like processes started to be visible as early as 0.5-1 hour after the addition of hEb peptide. The effect of hEb peptide in inducing neurite-like outgrowth was dose-dependent, as evident from a comparison of cells treated with 0.4 µM hEb peptide with those treated with 0.8-3.2 µM hEb peptide over 24-72 hours. The maximum effect of hEb peptide was observed 48 hours after the addition of 3.2 µM hEb peptide, with an average neurite length of 50 to 60 µm (Table 1, below).

[3] = system: neuroblastoma SK-N-F1 cells; test: Soft agar colony formation (hEb peptide); format: cell-based, human; details: 5 nM
Procedure: The effect of hEb-peptide on in vitro colony formation was tested in the presence or absence of either the mature hlGF-I or fetal bovine serum (FIG. 12). Human neuroblastoma SK-N-F1 cells (10^4) were mixed with 0.4% soft agar supplemented with or without hEb peptide (3.2 µM), IGF-I (5 nM) and/or fetal bovine serum (2.5%), as indicated. The cell mixtures were seeded on top of a solidified basal medium DMEM/F12 (1:1) containing 0.5% agar. Medium supplemented with various peptides or serum were overlaid on top of the solidified cell layer followed by a two-week period incubation at 37° C. in a 5% CO2 humidified incubator. The percentage of cells formed into colonies with a diameter greater than 100 µm Macpherson, Tissue culture methods and applications, pp 276-80: N.Y. Academic Press, 1973) were scored in triplicate and subjected to Student t-test analysis. At least three independent assays under each treatment conditions were carried out.

[4] = system: MCF-7, HT-29, HepG2, ZR-75-1, SK-N-F1, or HC cells; test: Morphological change assay in tumor cell lines; format: cell-based, human and fish; details: 2.5 nM, 24 hours, serum-free basal medium
Procedure: (§1) Approximately 1-2×10^5 of MCF-7, ZR-75-1, HT-29, HepG2, 293GP, HC or SK-N-F1 cells re-suspended in their respective basal medium without fetal bovine serum (FBS) were plated in a 6-well culture chamber. Prior to plating cells, an acid-washed coverslip was placed in each well of the culture chamber. Recombinant rainbow trout E-peptides (rtEa-2, rtEa-3 or rtEa-4 peptide at 0.8 µM), human IGF-I (hIGF-1, 2.5 nM) or the same amount of control protein was added to each well and the cell cultures were incubated at 37° C. under a humidified atmosphere of 5% CO2. The control protein was prepared from E. coli cells carrying the expression plasmid but without the E-peptide gene according to the purification method described by Tian et al. (1999). Coverslips were removed from the culture chamber 24 hours after initiation of the treatment and observed under an Olympic inverted microscope equipped with differential interference phase contrast objective lenses or phase contrast objective lens (final magnification, 200×). The morphological change assay was performed at least 10 times with different batches of Ea-4 peptide preparations.
Oncogenic transformed or established cancer cells derived from human and fish (MCF-7, HT-29, HepG2, ZR-75-1, SK-N-F1, or HC cells) were plated in their respective serum-free basal medium supplemented with 0.8 µM of the trout recombinant Ea-4-peptide, with the control protein, or with 2.5 nM of the recombinant hlGF-I and the cultures were examined 24 hours later under an inverted microscope equipped with differential interference phase contrast objectives. […] The rtEa-4 peptide treated cells developed several pseudopodia-like structures to establish contact with neighboring cells similar to that seen in untransformed or non-malignant cells.
Because each of these tumor cell lines obtained from ATCC contains a mixed population of tumorous and nontumorous cells, only between 25-40% of the cells from each cell line responded to induction by rtEa-4-peptide. […]

[5] = system: NIH 3T3 cells and caprine mammary epithelium cells (CMEC); details: recombinant peptides; cited from earlier work
[6] = system: 293GP or ZR-75-1 cells; test: Morphological change by Ea-2, Ea-3, Ea-4 peptides; format: cell-based, human; details: 0.8 μM, 24 hours
Procedure: as §1
Cells were again cultured as described above. Twenty-four hours after treatment with 0.8 µM of E-peptides or the control protein, the cells were observed under an Olympic inverted microscope equipped with differential interference phase contrast objective lenses (200× magnification). […] To confirm this hypothesis, synthetic peptides specific to Ea-1-, Ea-2-, Ea-3- and Ea-4-peptide (Ea-1sp, Ea-2sp, Ea-3sp and Ea-4sp) specific sequence (see FIG. 1) were prepared and tested for their activities to induce morphological change in ZR-75-1 cells. For FIG. 6, cells were cultured in F12/DME medium without FBS as described above. Twenty-four hours after treatment with 0.8 µM of synthetic peptide containing Ea-1 sp, Ea-2sp, Ea-3sp or Ea-4sp specific sequence or the control protein, the cells were observed under an Olympic inverted microscope equipped with differential interference phase contrast objective lenses (200× magnification).

[7] = system: cultured BALB/3T3 fibroblast; details: recombinant peptides; cited from earlier work

Molecule | mitogenic activity [5] | induction of morphological change [6] | mitogenic activity [7] | other results
C[C@@H]1C[C@@H]([C@H](O)CC2CC(=O)NC(=O)C2)C(=O)[C@@H](C)C1 [cycloheximide] |  |  |  | Ea-4 peptide-induced morphological changes ([1]; cycloheximide 1.0 μg/mL with Ea-4 0.8 μM): abolished
.alpha.-aminitin |  |  |  | Ea-4 peptide-induced morphological changes ([1]; α-aminitin 10 μg/mL with Ea-4 0.8 μM): abolished
hlGF-I: recombinant mature human insulin-like growth factor I [reference compound] |  |  |  | morphological change [2]: remained rounded and formed aggregated clusters; colony formation [3]: strongly stimulated colony formation; morphological change [4]: rounded morphology
rtEa-2: recombinant Ea-2 peptide of rainbow trout pro-IGF-I, 47 amino acid residues (SEQ ID NO: 4) (RSVRAQRHTDMPRTPKKPLSGHSHPSCKEVHQKNSSRGNTGGRNYRM; Oncorhynchus mykiss) | possess mitogenic activity | able to induce morphological change | possess mitogenic activity | 
B1 | possess mitogenic activity | failed to induce any visible morphological change | possess mitogenic activity | 
